Drawing on patent US20260184710A1, “CASITAS B-LINEAGE LYMPHOMA PROTOONCOGENE B (CBL-B) DEGRADING COMPOUNDS AND ASSOCIATED METHODS OF USE” (Arvinas Operations, Inc., priority 2022, published 2026), this text covers DC50 and Dmax for four molecules.

Assay [1] concerns the target T1, Cbl-b (Homo sapiens, UniProt Q13191).
T1 construct: Cbl-b-HiBit KI Jurkat Cells were purchased from Promega; host or cells: Cbl-b-HiBiT knock-in Jurkat cells
The assay is described as follows: Cbl-b Degradation Method A (FACS, anti-Cbl-b antibody staining). Format: cell-based. The settings on record: Cbl-b-HiBit KI Jurkat Cells, incubated at least 20 hours; for DC50: half maximal degradation, read-out: Cbl-b Degredation Method A IC50; for Dmax: Jurkat, maximum degradation observed, read-out: Cbl-b Degredation Method A Dmax (%). Put shortly:
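Readout is flow cytometry of fixed, permeabilized cells immunostained for Cbl-b (primary 1:200, AF488 secondary). Cells were Cbl-b-HiBit knock-in Jurkat, exposed to compound ≥20 h at 37 °C; half-maximal degradation concentration (DC50) and maximal degradation (Dmax) calculated relative to control.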
In general terms: The HiBiT peptide binds its large partner to form an active luciferase.

For assay [2], the target named is T1, Cbl-b. The assay is described as follows: Cbl-b Degradation Method B (Nano-Glo HiBiT lytic detection). Format: cell-based. Particulars: Cbl-b-HiBit KI Jurkat Cells, incubated at least 6-24 hours; for DC50: half maximal degradation, read-out: Cbl-b Degredation Method B IC50; for Dmax: maximum degradation observed, read-out: Cbl-b Degredation Method B Dmax (%). Put shortly:
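An 11-point, 3-fold compound dilution was applied for 6-24 hours to Jurkat cells carrying HiBiT-tagged endogenous Cbl-b. Lytic HiBiT luminescence quantified residual protein. Outputs are DC50 and Dmax relative to DMSO control.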

T1 sequence (Q13191 whole entry): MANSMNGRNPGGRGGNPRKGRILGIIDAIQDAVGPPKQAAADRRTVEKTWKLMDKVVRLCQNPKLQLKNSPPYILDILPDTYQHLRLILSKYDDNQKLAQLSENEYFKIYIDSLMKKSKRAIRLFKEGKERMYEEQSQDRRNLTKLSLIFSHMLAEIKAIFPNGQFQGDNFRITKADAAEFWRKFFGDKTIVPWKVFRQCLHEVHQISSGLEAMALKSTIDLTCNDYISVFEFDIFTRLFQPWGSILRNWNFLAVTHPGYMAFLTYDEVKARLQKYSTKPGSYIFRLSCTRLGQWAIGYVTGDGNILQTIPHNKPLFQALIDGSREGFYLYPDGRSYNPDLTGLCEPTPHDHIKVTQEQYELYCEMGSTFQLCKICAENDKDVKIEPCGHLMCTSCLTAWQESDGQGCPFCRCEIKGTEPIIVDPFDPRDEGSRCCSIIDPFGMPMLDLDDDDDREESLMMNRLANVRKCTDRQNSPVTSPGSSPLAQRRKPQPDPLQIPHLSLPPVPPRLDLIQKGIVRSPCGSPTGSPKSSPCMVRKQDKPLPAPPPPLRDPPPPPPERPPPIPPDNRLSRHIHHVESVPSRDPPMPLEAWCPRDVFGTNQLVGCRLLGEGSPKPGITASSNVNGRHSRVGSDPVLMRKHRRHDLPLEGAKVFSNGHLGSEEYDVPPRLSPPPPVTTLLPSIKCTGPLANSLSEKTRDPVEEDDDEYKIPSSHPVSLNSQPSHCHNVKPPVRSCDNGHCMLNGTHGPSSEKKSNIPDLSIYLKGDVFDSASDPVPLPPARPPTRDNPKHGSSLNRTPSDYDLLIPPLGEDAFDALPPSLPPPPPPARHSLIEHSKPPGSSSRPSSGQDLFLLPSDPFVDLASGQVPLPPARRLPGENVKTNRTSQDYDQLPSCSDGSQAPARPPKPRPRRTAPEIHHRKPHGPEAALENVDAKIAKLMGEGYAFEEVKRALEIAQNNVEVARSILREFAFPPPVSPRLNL

For orientation: Dmax means the largest share of the target that was removed. Regarding `CC1c2nc(N3CCC(O[C@H]4CC[C@H](CN5C[C@H]6C[C@@H]5CN6c5cc6c(c(C(F)(F)F)c5)CN(c5cccc([C@]7(Cc8nncn8C)C[C@@H](C#N)C7)c5)C6=O)CC4)CC3)ccc2C(=O)N1C1CCC(=O)NC1=O` (stereo partly drawn) [Example 181, (1r,3r)-3-[(4-methyl-4H-1,2,4-triazol-3-yl)methyl]-3-(3-{1-oxo-6-[(1R,4R)-5-{[(1r,4r)-4-({1-[6-(2,6-dioxopiperidin-3-yl)-7-methyl-5-oxo-5H,6H,7H-pyrrolo[3,4-b]pyridin-2-yl]piperidin-4-yl}oxy)cyclohexyl]methyl}-2,5-diazabicyclo[2.2.1]heptan-2-yl]-4-(trifluoromethyl)-2,3-dihydro-1H-isoindol-2-yl}phenyl)cyclobutane-1-carbonitrile], at Cbl-b [1], the DC50 was less than 5 nM and the greatest degradation seen (Dmax) lay within 35 to 70%. Moreover, on Cbl-b [2], the DC50 was less than 5 nM and the Dmax was in the range of 35 to 70%.
For `COc1c(N2CCC(F)(CN3CCC4(CC3)CN(c3cc5c(c(C(F)(F)F)c3)CN(c3cccc(C6(Cc7nncn7C)COC6)c3)C5=O)C4)CC2)ccc2c1CN(C1CCC(=O)NC1=O)C2=O` (stereo not drawn) [Example 185, 3-{5-[4-fluoro-4-({2-[2-(3-{3-[(4-methyl-4H-1,2,4-triazol-3-yl)methyl]oxetan-3-yl}phenyl)-3-oxo-7-(trifluoromethyl)-2,3-dihydro-1H-isoindol-5-yl]-2,7-diazaspiro[3.5]nonan-7-yl}methyl)piperidin-1-yl]-4-methoxy-1-oxo-2,3-dihydro-1H-isoindol-2-yl}piperidine-2,6-dione], the DC50 on Cbl-b [1] and on Cbl-b [2] was 5 to 50 nM in each case. The Dmax at Cbl-b [1] and at Cbl-b [2] was 35 to 70% each time.
On to `COc1c(N2CCC(O[C@H]3CC[C@H](CN4CCC5(CC4)CN(c4cc6c(c(C(F)(F)F)c4)CN(c4cccc([C@]7(Cc8nncn8C)C[C@@H](C#N)C7)c4)C6=O)C5)CC3)CC2)ccc2c1CN(C1CCC(=O)NC1=O)C2=O` (stereo partly drawn) [Example 186, (1r,3r)-3-[(4-methyl-4H-1,2,4-triazol-3-yl)methyl]-3-{3-[1-oxo-6-(7-{[(1r,4r)-4-({1-[2-(2,6-dioxopiperidin-3-yl)-4-methoxy-1-oxo-2,3-dihydro-1H-isoindol-5-yl]piperidin-4-yl}oxy)cyclohexyl]methyl}-2,7-diazaspiro[3.5]nonan-2-yl)-4-(trifluoromethyl)-2,3-dihydro-1H-isoindol-2-yl]phenyl}cyclobutane-1-carbonitrile], for which, at Cbl-b [1], the DC50 lay within 5 to 50 nM and the Dmax lay within 35 to 70%. On Cbl-b [2], the DC50 is less than 5 nM and the maximal degradation (Dmax) is 35 to 70%.
With `Cc1cc(N2CCC(O[C@H]3CC[C@H](CN4CCC5(CCN(c6cc7c(c(C(F)(F)F)c6)CN(c6cccc([C@]8(Cc9nncn9C)C[C@@H](C#N)C8)c6)C7=O)C5)C4)CC3)CC2)c(F)c2c1C(=O)N(C1CCC(=O)NC1=O)C2` (stereo partly drawn) [Example 188, (1r,3r)-3-[(4-methyl-4H-1,2,4-triazol-3-yl)methyl]-3-{3-[1-oxo-6-(7-{[(1r,4r)-4-({1-[2-(2,6-dioxopiperidin-3-yl)-4-fluoro-7-methyl-1-oxo-2,3-dihydro-1H-isoindol-5-yl]piperidin-4-yl}oxy)cyclohexyl]methyl}-2,7-diazaspiro[4.4]nonan-2-yl)-4-(trifluoromethyl)-2,3-dihydro-1H-isoindol-2-yl]phenyl}cyclobutane-1-carbonitrile], the greatest degradation seen (Dmax) on Cbl-b [1] and at Cbl-b [2] was 35 to 70% throughout. On Cbl-b [2], the DC50 was less than 5 nM.
